Assay results taken from patent publication US20220071976A1 (CHASE THERAPEUTICS CORPORATION, priority 2018, published 2022).
“Also recorded” adds a separate entry of the source.

Tests used:
[1] = cited from earlier work; for improvement over baseline versus placebo on the MADRS: endpoint week 8, pramipexole 1.0 mg/day, fluoxetine 20 mg/day
[2] = high doses of pramipexole; cited from earlier work

O=c1[nH]c2ccccc2n1CCCN1CCC(n2c(=O)[nH]c3cc(Cl)ccc32)CC1 [domperidone, 5-chloro-1-(1-[3-(2-oxo-2,3-dihydro-1H-benzo[d]imidazol-1-yl)propyl]piperidin-4-yl)-1H-benzo[d]imidazol-2(3H)-one]
effect on dose-limiting gastro-intestinal adverse events of pramipexole (concomitant oral administration of domperidone with high doses of pramipexole): prevented the occurrence of dose-limiting gastro-intestinal adverse events; also recorded: attenuated dose-limiting gastro-intestinal adverse effects

CNCCC(Oc1ccc(C(F)(F)F)cc1)c1ccccc1 (stereo not shown) [fluoxetine]
improvement over baseline versus placebo on the MADRS [1]: significantly better improvement over baseline than the placebo group

CCCN[C@H]1CCc2nc(N)sc2C1 [pramipexole, (S)-6-propylamino-4,5,6,7-tetrahydro-1,3-benzothiazole-2-amine]
activity in animal behavior tests simulating symptoms of depression [2]: active
improvement over baseline versus placebo on the MADRS [1]: significantly better improvement over baseline than the placebo group
patients reporting nausea ([1]; pramipexole 5.0 mg/day group): 76%
patients reporting vomiting ([1]; pramipexole 5.0 mg/day group): 39%
patients who discontinued treatment prematurely, mainly because of adverse events ([1]; pramipexole 5.0 mg/day group): 57.6%
improvement at week 8 (change from baseline) ([1]; pramipexole 5.0 mg/day group, scale not stated, no p value because of high drop-out rate): −15.00
subjects reaching first intolerable dose FID-1 (human, in vivo, po): All subjects reached FID-1
dose limiting toxicity (pramipexole alone, single oral increasing doses): gastro-intestinal adverse events in all subjects
